System: C8-D1A astrocytes
Assay: Glioprotection against 6-OHDA-induced cytotoxicity, MTT
Assay type: cell-based, mouse
Details: compound 0.25 µM, 6-OHDA 20 µM, 24 h
Experimental: Mouse astrocytes (C8-D1A cell line, ATCC) were cultured in DMEM (Dulbecco’s Modified Eagle’s Medium) supplemented with 10% FBS (FBS; Gibco, Life Technologies, Carlsbad, CA, USA) and 1% antibiotic mixture (Gibco, Life Technologies, Carlsbad, CA, USA) at standard condition until the cells reached 80–90% confluence. Cells were harvested and seeded in 96-well plates at a density of 5000 cells/well. All experiments were conducted with a reduced amount of serum equal to 2.5%. The optimal amount of serum was determined experimentally on the basis of preliminary studies. […] Then 6-OHDA (20 µM) or rotenone (0.5 µM) were added and co-incubated for the next 24 h. The ability of tested compounds to prevent 6-OHDA-induced or rotenone-induced cytotoxicity was assessed by MTT assay following the protocol described above. The experiments were run three times in triplicates.
Considering the pivotal physiological role of astrocytes in contrasting oxidative stress and promoting tissue repair, supporting their neuroprotective function might be regarded as a tangible strategy to improve the current therapeutic needs in the treatment of neurodegenerative disorders. […] For this purpose, cells were co-incubated with the evaluated compounds (at the non-toxic concentration of 0.25 µM) and 6-OHDA or ROT (20 and 0.5 µM, respectively). After 24 h of incubation, the viability of astrocytes was determined using the MTT assay.

Structure (SMILES): O=S(=O)(c1cccc(N2CCNCC2)c1)N1Cc2cccc(Br)c2C1 [3g, 4-Bromo-2-{[3-(piperazin-1-yl)phenyl]sulfonyl}isoindoline]
- effect on 6-OHDA-induced cytotoxicity: decreased the cytotoxicity
